“Also recorded” adds a separate entry of the source.
Columns and labels:
[1] = system: mouse uterus; assay: Uterine wet weight in ovariectomized BALB/c mice; type: in vivo; settings: for Uterine wet weight, agonist mode (without E2): q.d. three days, 100 mg/ml OP-1038 p.o. in 0.5% CMC; for Uterine wet weight, antagonist mode (+E2): three days, co-treated with 0.1 μg/ml E2 sc
Experimental: FIG. 9. […] Uterine wet weight was measured at the end of three days after treating ovariectomized BALB/c mice q.d. with vehicle or one of the following treatments (10 mice per group): 50 mg/kg tamoxifen p.o. in 0.5% carboxymethylcellulose (CMC); 50 mg/kg fulvestrant sc in 5% ethanol; […] OP-1038 p.o. in 0.5% CMC. Half the animals in each group were co-treated with 0.1 μg/ml E2 sc in cottonseed oil-ethanol (95:5), or vehicle alone. Animal experiments were conducted at the University of California, San Francisco following institutional animal care and use committee protocols.

[2] = system: E2-stimulated estrogen response element (ERE)-regulated reporter gene activity; assay: ERE-tk109-Luc reporter gene assay in MCF-7 cells; type: cell-based, human; settings: 100 pM E2, 18-22 hours
Experimental: (§1) FIG. 10. […] A) OP-1074 had similar potency to model anti-estrogens in the ERE reporter gene assay. MCF-7 cells were transiently transfected with ERE-tk109-Luc and treated with anti-estrogens in hormone-depleted medium in the presence of 100 pM E2 for 22 hours. Results were from a single representative experiment and reported as the mean percent induction relative to E2 from triplicate treatments, with error bars representing SEM. […] Results were from a single representative experiment and reported as the mean percent induction relative to E2 from triplicate treatments, with error bars representing SEM. IC50's were calculated using the least squares fit method.
Compounds of invention are tested for their inhibitory activity of estrogen according to the assay methods described in Hodges-Gallagher, L., Valentine, C. V., El Bader, S. and Kushner, P. J. (2007) “Histone Deacetylase Inhibitors Enhance the Efficacy of Hormonal Therapy Agents on Breast Cancer Cells and Blocks Anti-estrogen-Driven Uterine Cell Proliferation” Breast Cancer Res Treat, November; 105(3):297-309. Specifically, an estrogen-responsive reporter gene (ERE-tk109-Luc) was transiently transfected into MCF-7 cells and treated with anti-estrogens in triplicate in the presence of 100 pM 17β-estradiol (E2) for 18-22 hours. Luciferase activity was normalized to activity of E2 alone and IC50's were calculated using the least squares fit method. This method is also described in legend for FIG. 10.

[3] = system: human MCF-7 breast cancer cells; assay: E2-stimulated proliferation of MCF-7 breast cancer cells; type: cell-based; settings: MCF-7 cells, 100 pM E2, 6-8 days
Experimental: as §1, with “11.” for “10.”, “inhibiting E2-stimulated proliferation of breast cells in vitro.” for “the ERE reporter gene assay.”, “were” for “were transiently transfected with ERE-tk109-Luc and”, “medium for 6-8 days” for “medium”, “E2. Proliferation was measured using Cyquant fluorescent DNA-binding dye (Invitrogen, Grand Island, N.Y.).” for “E2 for 22 hours.”
Proliferation in MCF-7 was measured using a fluorescent DNA binding dye 6-8 days after treatment in triplicate with anti-estrogens in the presence of 100 pM E2 and as described in the legend to, and depicted in FIG. 11.

[4] = system: MCF-7 HER2/neu Clone 18 xenograft; assay: Mammary tumor xenograft study; type: in vivo, ovariectomized athymic nude mice; settings: 100 mg/kg twice daily by oral gavage, mice implanted with estrogen pellets
Text: FIG. 13. […] A) Percent change in tumor volume of human MCF-7 HER2/neu clone 18 xenografts in ovariectomized athymic nude mice implanted with estrogen pellets and treated with either tamoxifen (by oral gavage), fulvestrant (Faslodex) by s.c. injection, or OP-1074 (by oral gavage). B) Weights of the animals treated as above. C) Waterfall plot of final tumor volumes compared with volumes at the start of treatment.
The purpose of this study is to examine the ability of OP-1074, to slow or shrink a tamoxifen resistant tumor (MCF-7 HER2/neu Clone 18) xenograft growing on ovariectomized athymic nude mice under stimulation from exogenous estrogen. Clone 18 cells grown in culture are implanted along with 0.18 mg estradiol/90 day release pellets (Innovative Research, Sarasota Fla.) into 55 mice to initiate the experiment. When the tumors have reached 250 cubic millimeters the mice are divided into four groups of 10 mice each and dosing initiated. The four groups are:
1) No hormonal treatment—this group receives daily gavage with vehicle.
2) Tamoxifen citrate 100 mg/kg daily by oral gavage in vehicle.
3) Faslodex 100 mg/kg delivered daily by subcutaneous injection.
4) OP-1074 100 mg/kg twice daily by oral gavage in vehicle with the exception of two weekends in which dosing was once daily.

[5] = Single dose oral pharmacokinetics study in female rats; type: in vivo, female Sprague Dawley rats
Experimental: The oral bioavailabilty in rats of OP-1038 was determined in the following study. 3 rats (female Sprague Dawley, non-fasted) were dosed by oral gavage (5 mg/kg body weight) in 0.5% CMC in water with a comparison to intravenous dosing (3 mg/kg body weight). Plasma was collected at the following hourly time points from rats in both groups (0, 0.08, 1.0, 2.0, 4.0, 8.0, 16.0, 24.0, 48.0 and 96.0 hours post dosing). Plasma concentrations of OP-1038 were determined by HPLC.

[6] = Sprague-Dawley, rat, plasma, Oral, 5.00 mg/kg, female S.D. rats

| Structure (SMILES) | Uterine wet weight, agonist mode (without E2) [1] | Uterine wet weight, antagonist mode (+E2) [1] | Antagonism of E2-stimulated ERE-regulated reporter gene activity [2] | Antagonism of E2-stimulated proliferation [3] | Tumor volume change of xenografts [4] | AUCextrap ([5]; Oral, 5.00 mg/kg, female S.D. rats) [%] | bioavailability ([5]; Sprague-Dawley, rat, plasma, Oral 5 mg/kg compared to intravenous 3 mg/kg, female S.D. rats, read-out: F % (Oral bioavailability)) [%] | Cmax ([5]; Sprague-Dawley, rat, plasma, Oral, 5.00 mg/kg, 0.5% CMC, female S.D. rats) [ng/mL] | AUC(0-inf) [5, 6] [ng·h/mL] | MRT last [5, 6] [h] | Tmax [5, 6] [h] | half-life [5, 6] [h] | AUC(0-t) ([5]; Sprague-Dawley, rat, plasma, Oral, 5.00 mg/kg, female S.D. rats, read-out: AUClast (0 to 96 h)) [ng·h/mL] | Oral bioavailability (in words) ([5]; oral gavage 5 mg/kg in rats) |
| --- | --- | --- | --- | --- | --- | --- | --- | --- | --- | --- | --- | --- | --- | --- |
| CC1=C(c2ccc(O)cc2)[C@H](c2ccc(OCCN3CC[C@@H](C)C3)cc2)Oc2cc(O)ccc21 [OP-1074, (2S)-3-(4-hydroxyphenyl)-4-methyl-2-(4-{2-[(3R)-3-methylpyrrolidin-1-yl]ethoxy}phenyl)-2H-chromen-7-ol] | essentially pure anti-estrogen | complete anti-estrogen | improved potency; also recorded: potent antagonists | improved potency; also recorded: potent antagonists | rapid and complete regression |  |  |  |  |  |  |  |  |  |
| CC1=C(c2ccc(O)cc2)C(c2ccc(OCCN3CC[C@@H](C)C3)cc2)Oc2cc(O)ccc21 (stereo partly drawn) [OP-1038, 3-(4-hydroxyphenyl)-4-methyl-2-(4-{2-[(3R)-3-methylpyrrolidin-1-yl]ethoxy}phenyl)-2H-chromen-7-ol] | not significantly different from control or fulvestrant | not different from fulvestrant | improved potency; also recorded: potent antagonists | improved potency; also recorded: potent antagonists |  | 10.1 ± 6.26 | 18.9 | 24.8 ± 3 | 671 ± 44.8 | 25.9 ± 3.37 | 2.33 ± 1.53 | 28.5 ± 11.6 | 603 ± 46.7 | orally bioavailable |

— patent publication US9018244B2, “Benzopyran compounds, compositions and uses thereof” (Olema Pharmaceuticals, Inc., priority 2011, dated 2015)
